From PMC3207901, “Nodulin 41, a novel late nodulin of common bean with peptidase activity” (BMC Plant Biology, 2011)
Where a SMILES comes first, the peptide text is derived from it. [ ]: non-standard residue; d: D form. The star is where a group is joined. Sta = CC(C)C[C@H](N)[C@@H](O)CC(=O)O; Isovaleryl = CC(C)CC(=O)*

Target: T1, PvNod41 (nodulin 41) (Phaseolus vulgaris, UniProt G1FTR5)
T1 construct: gene Nod41; native mature enzyme purified from 21 dpi root nodules; 437-residue precursor, 22-residue putative signal peptide and 50-residue prosegment removed; single chain, 41 kDa on SDS-PAGE
T1 sequence (G1FTR5 73-437): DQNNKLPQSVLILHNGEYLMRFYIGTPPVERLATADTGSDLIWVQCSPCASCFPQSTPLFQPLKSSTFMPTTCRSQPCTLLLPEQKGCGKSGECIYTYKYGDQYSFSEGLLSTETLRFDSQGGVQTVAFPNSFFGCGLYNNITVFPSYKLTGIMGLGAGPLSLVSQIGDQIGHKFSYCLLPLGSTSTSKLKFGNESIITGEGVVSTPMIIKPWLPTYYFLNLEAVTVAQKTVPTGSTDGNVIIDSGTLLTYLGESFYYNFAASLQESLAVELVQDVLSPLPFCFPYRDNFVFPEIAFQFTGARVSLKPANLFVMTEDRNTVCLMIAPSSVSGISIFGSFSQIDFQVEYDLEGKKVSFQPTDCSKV
Assay: casein degradation, SDS-PAGE densitometry
Assay type: biochemical
Conditions: 2 µM, casein substrate, 50 mM sodium citrate, pH 4.5, 37°C, 15 min preincubation
From the text: casein degradation, SDS-PAGE densitometry on PvNod41 (nodulin 41)

Which “% of residual activity (n = 3)” value does the source give for `CC(C)CC(=O)N[C@H](C(=O)N[C@H](C(=O)N[C@@H](CC(C)C)[C@@H](O)CC(=O)N[C@@H](C)C(=O)N[C@@H](CC(C)C)[C@@H](O)CC(=O)O)C(C)C)C(C)C` [Pepstatin A] (Isovaleryl-VV[Sta]A[Sta]-OH) here?
Its value is 55 (± 5) %.
